System: SEM cells
Experiment: cell viability relative to DMSO control; higher = less cytotoxic
Conditions: 48 h
Method in brief: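 Viability, reported as a per-plate percentage of DMSO wells with cell-free wells as background, came from CellTiter-Glo One luminescence. Reading took place after 48 h at 37°C. Before that, NOMO1 or SEM (500 cells/well) or P12-Ichikawa (1000 cells/well) leukemia cells, adapted for at least four passages in each medium, were seeded in 1536-well plates (5 μl) and pin-dosed with library compounds in DMSO, 47 μM to 0.79 nM over 11 threefold points.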

[1] = HPLM + 10% dialyzed FBS, 0.000781 µM
[2] = HPLM + 10% dialyzed FBS, 0.00234 µM
[3] = HPLM + 10% dialyzed FBS, 0.00702 µM
[4] = HPLM + 10% dialyzed FBS, 0.0211 µM
[5] = HPLM + 10% dialyzed FBS, 0.0632 µM
[6] = HPLM + 10% dialyzed FBS, 0.19 µM
[7] = HPLM + 10% dialyzed FBS, 0.569 µM
[8] = HPLM + 10% dialyzed FBS, 1.71 µM
[9] = HPLM + 10% dialyzed FBS, 5.12 µM
[10] = HPLM + 10% dialyzed FBS, 15.4 µM
[11] = HPLM + 10% dialyzed FBS, 46.1 µM
[12] = RPMI 5 mM glucose + 10% FBS, 0.000781 µM
[13] = RPMI 5 mM glucose + 10% FBS, 0.00234 µM
[14] = RPMI 5 mM glucose + 10% FBS, 0.00702 µM
[15] = RPMI 5 mM glucose + 10% FBS, 0.0211 µM
[16] = RPMI 5 mM glucose + 10% FBS, 0.0632 µM
[17] = RPMI 5 mM glucose + 10% FBS, 0.19 µM
[18] = RPMI 5 mM glucose + 10% FBS, 0.569 µM
[19] = RPMI 5 mM glucose + 10% FBS, 1.71 µM
[20] = RPMI 5 mM glucose + 10% FBS, 5.12 µM
[21] = RPMI 5 mM glucose + 10% FBS, 15.4 µM
[22] = RPMI 5 mM glucose + 10% FBS, 46.1 µM
[23] = RPMI 5 mM glucose + 10% dialyzed FBS, 0.000781 µM
[24] = RPMI 5 mM glucose + 10% dialyzed FBS, 0.00234 µM
[25] = RPMI 5 mM glucose + 10% dialyzed FBS, 0.00702 µM
[26] = RPMI 5 mM glucose + 10% dialyzed FBS, 0.0211 µM
[27] = RPMI 5 mM glucose + 10% dialyzed FBS, 0.0632 µM
[28] = RPMI 5 mM glucose + 10% dialyzed FBS, 0.19 µM
[29] = RPMI 5 mM glucose + 10% dialyzed FBS, 0.569 µM
[30] = RPMI 5 mM glucose + 10% dialyzed FBS, 1.71 µM
[31] = RPMI 5 mM glucose + 10% dialyzed FBS, 5.12 µM
[32] = RPMI 5 mM glucose + 10% dialyzed FBS, 15.4 µM
[33] = RPMI 5 mM glucose + 10% dialyzed FBS, 46.1 µM

| Structure (SMILES) | cell viability [1] [%] | cell viability [2] [%] | cell viability [3] [%] | cell viability [4] [%] | cell viability [5] [%] | cell viability [6] [%] | cell viability [7] [%] | cell viability [8] [%] | cell viability [9] [%] | cell viability [10] [%] | cell viability [11] [%] | cell viability [12] [%] | cell viability [13] [%] | cell viability [14] [%] | cell viability [15] [%] | cell viability [16] [%] | cell viability [17] [%] | cell viability [18] [%] | cell viability [19] [%] | cell viability [20] [%] | cell viability [21] [%] | cell viability [22] [%] | cell viability [23] [%] | cell viability [24] [%] | cell viability [25] [%] | cell viability [26] [%] | cell viability [27] [%] | cell viability [28] [%] | cell viability [29] [%] | cell viability [30] [%] | cell viability [31] [%] | cell viability [32] [%] | cell viability [33] [%] |
| --- | --- | --- | --- | --- | --- | --- | --- | --- | --- | --- | --- | --- | --- | --- | --- | --- | --- | --- | --- | --- | --- | --- | --- | --- | --- | --- | --- | --- | --- | --- | --- | --- | --- |
| C[C@H](NC(=O)Cc1cc(F)cc(F)c1)C(=O)N[C@H](C(=O)OC(C)(C)C)c1ccccc1 | 100 | 96.2 | 91.7 | 89.2 | 102 | 69.9 | 92.1 | 85.6 | 79.7 | 87.9 | 70.2 | 103 | 92.3 | 98.3 | 105 | 107 | 87.3 | 96.5 | 88.6 | 102 | 88.7 | 71.4 | 90.6 | 91.6 | 80.6 | 103 | 96.9 | 89.2 | 91.3 | 79.6 | 74.7 | 86.9 | 70.3 |
| COCCn1c2c([n+](Cc3cnccn3)c1C)C(=O)c1ccccc1C2=O | 128 | 113 | 123 | 50.7 | 23.5 | 11.2 | 7.74 | 8.7 | 8.71 | 4.23 | 3.41 | 116 | 128 | 114 | 110 | 71.4 | 15.5 | 7.97 | 8.06 | 5.61 | 4.16 | 2.77 | 105 | 132 | 117 | 91.1 | 46.2 | 12.6 | 8.08 | 7.35 | 5.94 | 4.15 | 3.55 |
| COc1ccc(F)c(F)c1C(=O)c1cnc(NC2CCN([S+](C)(=O)[O-])CC2)nc1N | 94.9 | 103 | 109 | 113 | 109 | 113 | 64.6 | 79 | 41.6 | 4.32 | 1.78 | 115 | 130 | 121 | 130 | 123 | 135 | 80.4 | 83.1 | 43.4 | 3.24 | 1.43 | 101 | 97.7 | 111 | 98.2 | 99.3 | 114 | 77.4 | 91.1 | 54.1 | 3.36 | 1.73 |
| Cc1cn2cc(C(=O)N(C)CCO)cc(N[C@@H]3CCOc4cccc(C)c43)c2n1 | 90.6 | 107 | 106 | 101 | 105 | 107 | 113 | 114 | 109 | 113 | 104 | 84.3 | 88.8 | 75 | 87.1 | 80.7 | 82.9 | 95.8 | 81.1 | 87.2 | 67.6 | 81.5 | 88.9 | 93.7 | 90 | 110 | 95.3 | 113 | 94.1 | 106 | 108 | 95.6 | 94.9 |
| CC(=O)OC[C@@H]1O[C@H]([C@H](OC(C)=O)[C@@H]1OC(C)=O)N2\C=C/C(=O)NC2=O |  |  |  |  |  |  |  |  |  |  |  |  |  |  |  |  |  |  |  |  |  |  | 118 | 109 | 137 | 119 | 114 | 143 | 113 | 112 | 122 | 108 | 93.9 |
| Cc1ccc(Nc2cc(-c3cccc(N4C(=O)c5ccccc5C4=O)c3)ncn2)cc1N[S+](C)(=O)[O-] | 102 | 97.9 | 131 | 117 | 126 | 123 | 117 | 137 | 123 | 123 | 76.2 | 123 | 95.8 | 137 | 138 | 128 | 132 | 142 | 166 | 133 | 132 | 105 | 122 | 117 | 119 | 119 | 135 | 115 | 127 | 154 | 136 | 142 | 77.7 |
| CNC(=O)c1ccc2c(c1)NC(=O)/C2=C(\Nc1cccc(CN(C)C)c1)c1ccccc1 | 74.4 | 93.6 | 98.8 | 109 | 85.3 | 89.9 | 78.1 | 57.7 | 4.44 | 23.4 | 1.26 | 97 | 94.9 | 97.3 | 106 | 93.5 | 89.7 | 94.5 | 4.33 | 3.4 | 1.5 | 1.29 | 78.4 | 92.3 | 97.5 | 92.1 | 87.2 | 108 | 81.4 | 35.4 | 3.62 | 1.76 | 1.28 |
